In patent publication US7081531B2, “Bridged bicyclic amine derivatives useful as CCR-3 receptor antagonists” (Roche Palo Alto LLC, priority 2003, dated 2006):

Experiments:
CCR-3 receptor = molecular target: T1, CCR-3 receptor (Homo sapiens, UniProt P51677); experiment: CCR-3 receptor binding assay, inhibition of 125I eotaxin binding to CCR-3 L1.2 transfectant cells; conditions: inhibition of 125I-eotaxin binding to CCR-3 L1.2 transfected cells, 1 hour at rt
T1 construct: expressed in transfected cells; host or cells: L1.2 (murine pre-beta lymphoma line) transfected with CCR-3
T1 sequence (P51677 1-355): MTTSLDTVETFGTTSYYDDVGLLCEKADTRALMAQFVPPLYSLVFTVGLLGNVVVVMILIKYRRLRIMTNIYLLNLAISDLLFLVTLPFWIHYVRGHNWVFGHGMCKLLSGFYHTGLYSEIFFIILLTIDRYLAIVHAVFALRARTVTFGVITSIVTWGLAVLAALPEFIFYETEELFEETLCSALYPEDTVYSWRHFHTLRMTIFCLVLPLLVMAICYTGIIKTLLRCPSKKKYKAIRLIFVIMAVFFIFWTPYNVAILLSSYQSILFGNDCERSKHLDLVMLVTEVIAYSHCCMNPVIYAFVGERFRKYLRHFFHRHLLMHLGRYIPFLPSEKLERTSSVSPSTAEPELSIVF
Experimental: CCR-3 Receptor Binding Assay—In Vitro
The CCR-3 antagonistic activity of the compounds of the invention was determined by their ability to inhibit the binding of ^125I eotaxin to CCR-3 L1.2 transfectant cells (see Ponath, P. D. et al., J. Exp. Med., 183:2437–48, (1996)).
The assay was performed in Costar 96-well polypropylene round bottom plates. Test compounds were dissolved in DMSO and then diluted with binding buffer (50 mM HEPES, 1 mM CaCl2, 5 mM MgCl2, 0.5% bovine serum albumin (BSA), 0.02% sodium azide, pH 7.24) such that the final DMSO concentration was 2%. 25 μl of the test solution or only buffer with DMSO (control samples) was added to each well, followed by the addition of 25 μl of ^125I-eotaxin ([…]) (NEX314, New England Nuclear, Boston, Mass.) and 1.5×10^5 of the CCR-3 L1.2 transfected cells in 25 μl binding buffer. The final reaction volume was 75 μl.
After incubating the reaction mixture for 1 hour at rt, the reaction was terminated by filtering the reaction mixture through a polyethylenimine-treated Packard Unifilter GF/C filter plate (Packard, Chicago, Ill.). The filters were washed four times with ice cold wash buffer containing 10 mm HEPES and 0.5 M sodium chloride (pH 7.2) and dried at 65° C. for approximately 10 minutes. 25 μl/well of Microscint-20® scintillation fluid (Packard) was added and the radioactivity retained on the filters was determined by using the Packard TopCount®
Compounds of this invention were active in this assay.

Q: Which IC50 (CCR-3 receptor) does the source give for Cc1c(CN2C3CCC2CC(Cc2ccc(Cl)c(Cl)c2)C3)c(=O)n(-c2ccccc2)n1C (stereo not shown) [Example 6, 4-[3-(3,4-dichloro-benzyl)-8-aza-bicyclo[3.2.1]oct-8-ylmethyl]-1,5-dimethyl-2-phenyl-1,2-dihydro-pyrazol-3-one] here?
A: Its IC50 is 965 nM.

Q: For COc1cc(NC(=O)N[C@@H](CN2C3CCC2CC(Cc2ccc(Cl)cc2)C3)[C@@H](C)O)cc(OC)c1OC (stereo partly shown) [Example 7], which IC50 (CCR-3 receptor) is on record?
A: Its IC50 is 8.2 nM.

Q: What about the melting point of the same compound?
A: Its melting point is 118 to 123 °C.

Q: For Cc1c(CN2CC3CCC2CC3Cc2ccc(Cl)c(Cl)c2)c(=O)n(-c2ccccc2)n1C (stereo not shown) [Example 2, 4-[5-(3,4-Dichloro-benzyl)-2-aza-bicyclo[2.2.2]oct-2-ylmethyl]-1,5-dimethyl-2-phenyl-1,2-dihydro-pyrazol-3-one], which IC50 (CCR-3 receptor) is on record?
A: Its IC50 is 331 nM.
